{"source": "patent US5985824A", "about": "“Methods and compositions for treating cystic fibrosis” (priority 1997, dated 1999)", "key": {"[1]": {"tested_on": "ΔF508-CFTR (C127-ΔF508-low cells)", "assay": "SPQ halide efflux assay, cAMP-stimulated Cl- channel activity, C127-ΔF508-low cells", "assay_type": "cell-based", "settings": "C127-ΔF508-low cells; for cAMP-stimulated change in SPQ fluorescence / Cl- channel activity, in words: DSG 10-100 μg/ml, sodium butyrate 5 mM 24 h, spermidine 5 μg/ml 72 h", "procedure": "(§1) The cAMP-dependent CFTR Cl^- channel activity was assessed using the halide-sensitive fluorophore 6-methoxy-N-(3-sulfopropyl)-quinolinium (SPQ) essentially as described previously (Cheng et al., (1995), supra.; Marshall et al., supra.). Briefly, the cells were treated with different amounts of DSG for the times specified. At the end of the treatment period, the cells were loaded with SPQ by hypotonic shock for 4 min at room temperature. SPQ fluorescence initially was quenched by incubating the cells for up to 30 min in a NaI buffer (135 mM NaI, 2.4 mM K2 HPO4, 0.6 mM KH2 PO4, 1 mM MgSO4, 1 mM CaSO4, 10 mM dextrose, and 10 mM N-2 hydroxyethylpiperazine-N'2-ethanesulfonic acid, pH 7.4). After measuring the baseline fluorescence (Fo) for 2 min., the NaI solution was replaced with one containing 135 mM NaNO3, and fluorescence was measured for another 16 min. Forskolin (20 μM) and 3-isobutyl-1-methyl-xanthine (IBMX) (100 μM) were added 5 min after the anion substitution to increase intracellular levels of cAMP.\n(§2) An increase in halide permeability is reflected by a more rapid increase in SPQ fluorescence. It is the rate of change rather than the absolute change in signal that is the important variable in evaluating anion permeability. Differences in absolute levels reflect quantitative differences between groups in SPQ loading, size of cells, or number of cells studied. The data are presented as means± SE of fluorescence at time t (Ft) minus the baseline fluorescence (Fo, the average fluorescence measured in the presence of I^- for 2 min. before ion substitution) and are representative of results obtained under each condition.\nFor each experiment, between 50 to 100 cells were examined on a given day and studies under each condition were repeated on at least two days. For each experiment, the responses were compared with those obtained with control or untreated cells. […] Under the conditions specified above, control cells were unresponsive to added cAMP agonists. There was a broad spectrum in the rate of change in SPQ fluorescence observed with responsive cells. Normally, cells were scored as responsive if they generated a minimum of a […] change in the rate of increase in SPQ fluorescence following stimulation with cAMP agonists. Because the response was heterogenous, the data shown are for the 10% of cells in each experiment showing the greatest response.\nA bovine-papilloma virus based eukaryotic expression vector (pBPV-CFTR-ΔF508) containing the gene for ΔF508 CFTR and neomycin resistance were transfected into C127 cells. The C127 cells are murine mammary cells which were obtained from ATCC (#CRL 1616). The expression of the mutant ΔF508 protein and neomycin was driven using a metallothionein promoter. Following transfection, clonal cells resistant to G418 were isolated and cells expressing the mutant ΔF508 protein were subsequently identified using antibodies specific for CFTR (mAb-13-1). The cells expressing the mutant ΔF508 CFTR protein were maintained in Dulbecco's modified eagle media (DMEM) supplemented with glutamine and fetal calf serum.\nC127-ΔF508-low (mouse mammary tumor) is a recombinant cell line stably transfected with the cDNA encoding the mutant ΔF508-CFTR (Cheng et al. (1995), supra.; Marshall et al. (1994), J. Biol. Chem. 269: 2987-2995). […] C127-mock is a cell line that has been stably transfected with the backbone of the expression vector used to generate C127-ΔF508-low (Cheng et al. (1995), supra.). LLCPK1 -ΔF508 (pig kidney epithelial) is a recombinant cell line stably expressing low levels of the mutant ΔF508-CFTR protein (Marshall et al., supra.). The details of the generation, characterization and routine propagation of these cell lines has been described (Cheng et al. (1995), supra.; Marshall et al., supra.).\nCells were treated with up to 100 μg/ml of DSG for up to 72 h. Concentrations of DSG >50 μg/ml were toxic to most of the cell types tested. […]"}, "ΔF508-CFTR": {"tested_on": "ΔF508-CFTR", "settings": "recombinant cells; Cheng et al. (1995); cited from earlier work"}, "ΔF508-CFTR (IBE-1 cells) [2]": {"tested_on": "ΔF508-CFTR (IBE-1 cells)", "settings": "CFTR vs ORCC; Cliff and Frizzel, Schwiebert et al.; cited from earlier work"}, "ΔF508-CFTR (IBE-1 cells) [3]": {"tested_on": "ΔF508-CFTR (IBE-1 cells)", "assay": "whole cell patch-clamp analysis of IBE-1 cells", "assay_type": "cell-based, human", "settings": "200 μM extracellular DPC, n=4, DSG-treated IBE-1 cells", "procedure": "The bath (extracellular) solution contained: 140 mM N-methyl-Dglucamine (NMDG), 2 mM CaCl2, 1 mM MgCl2, 0.1 mM CdCl2, 10 mM HEPES, 4 mM CsCl, and 10 mM glucose, pH 7.4. These solutions were designed so as to study only currents flowing through Cl^- channels, since Cl^- was the only significant permeant ion in the solutions. Furthermore, Ca^2+ -activated Cl^- currents were minimized by inclusion of 10 mM EGTA in the intracellular solution and 100 μM of Cd^2+ in the extracellular bath. K^+ currents were minimized by including 20 mM TEA in the intracellular solution. Aspartate was used as the replacement anion in experiments in which extracellular Cl^- concentration was changed. Forskolin (10 μM), IBMX (100 μM), 8-(4-chlorophenylthio)-cAMP (cpt-cAMP, 200 μM), diphenylamine carboxylic acid (DPC, 200 μM), UTP (100 μM), and ionomycin (1 μM) were added to the bath solutions as indicated. Current recordings were made from the same cells before, during, and after exposure to the solutions containing the different agonists or inhibitors. All experiments were performed at room temperature (22° C.). Currents were filtered at 2 kHz. Data acquisition and analysis were performed using the PCLAMP 5.5.1 software (Axon Instruments, Foster City, Calif.).\nIn all of the successfully patched CF IBE-1 cells from 6 separate coverslips no activation of whole cell currents in response to forskolin (10 μM) plus IBMX (100 μM) or cpt-cAMP (200 μM) was detected (FIG. 10A and 10B), indicating no endogenous CFTR channel activity in these cells. In contrast, in 7 out of 19 successful patched cells from 19 separate coverslips treated with DSG (10 μM) for 48 to 72 hrs. a significant activation of whole cell currents was observed. As all the other cells, the holding potential was 0 m, which inactivated the voltage-gated Na^+ and Ca^++ channels. After addition of 200 μM cpt-cAMP to the bath solution, voltage steps from the holding potential to between -100 mV and 80 mV in 20 mV increments activated whole cell currents. In these experiments, the intracellular and extracellular solutions were designed to study only current flowing through Cl^- channels, since Cl^- is the only significant permeant ion in solution. Ca^++ and K^+ currents were minimized by 100 μM of extracellular Cd^++ and 20 mM of intracellular TEA respectively. Furthermore, the currents were ascertained to be Cl^- currents from change in the reversal potential which was shifted from 1.1±1.5 to 47.3±6.1 mV by reducing extracellular Cl^- from 150 mM to 20 mM.\nIt is highly unlikely that Ca^++ -activated Cl^- was recorded in these experiments because of the presence of 10 mM intracellular EGTA and 100 µM extracellular Cd^++. […] Special attention was paid to detect possible contribution of the outwardly rectifying Cl^- channel (ORCC) to the whole cell currents. Because of a possible upregulatory role of CFTR, ORCC can be activated in normal but not in CF airway epithelial cells (Hwang et al. (1989), supra.; Li et al. (1988), Nature 331: 358-360; Morris and Frizzel (1993); Am. J. Physiol.; Schwiebert et al. (1994), Am. J. Physiol.)."}, "[4]": {"tested_on": "ΔF508-CFTR (JME/CF15 cells)", "assay": "SPQ assay, cAMP-stimulated Cl- channel activity, JME/CF15 cells", "assay_type": "cell-based, human", "settings": "72 h", "procedure": "as §1, §2\nFor each experiment, between 50 to 100 cells were examined on a given day and studies under each condition were repeated on at least two days. […] There was a broad spectrum in the rate of change in SPQ fluorescence observed with responsive cells. Normally, cells were scored as responsive if they generated a minimum of a […] change in the rate of increase in SPQ fluorescence following stimulation with cAMP agonists. […]"}, "CFTR": {"tested_on": "CFTR", "settings": "Yang et al. (1997); cited from earlier work"}}, "note": "“Also recorded” adds a separate entry of the source."}
{"molecule": "CCCC(=O)[O-].[Na+]", "note": "[sodium butyrate]", "values": [{"measurement": "cells generating a measurable response", "setting": "[1]; SPQ, average of 5 experiments", "result": 90, "unit": "%"}, {"measurement": "cAMP-stimulated change in SPQ fluorescence / Cl- channel activity, in words", "setting": "[1]", "result": "generated cAMP-stimulated halide efflux"}, {"measurement": "effect on ΔF508-CFTR expression / location, in words", "setting": "ΔF508-CFTR", "result": "overexpression of ΔF508 in recombinant cells; also recorded: results in synthesis of detectable amounts of band C-CFTR; also recorded: capable of effecting the presence of ΔF508-CFTR at the plasma membrane"}]}
{"molecule": "O=C(O)c1ccccc1Nc1ccccc1", "note": "[DPC, diphenylamine carboxylic acid]", "values": [{"measurement": "selectivity of inhibition", "setting": "ΔF508-CFTR (IBE-1 cells) [2]", "result": "specifically inhibit CFTR but not ORCC"}, {"measurement": "reduction of whole cell currents", "setting": "ΔF508-CFTR (IBE-1 cells) [3]", "result": "92±4", "unit": "%"}]}
{"molecule": "NCCCCNCCCN", "note": "[spermidine]", "values": [{"measurement": "cAMP-stimulated change in SPQ fluorescence / Cl- channel activity, in words", "setting": "[1]", "result": "No measurable cAMP-stimulated Cl^- channel activity was detected"}, {"measurement": "cAMP-stimulated Cl- channel activity, in words", "setting": "[4]", "result": "not replicated"}]}
{"molecule": "O=c1c(-c2ccc(O)cc2)coc2cc(O)cc(O)c12", "note": "[genistein]", "values": [{"measurement": "activity of CFTR Cl channels at the cell surface", "setting": "CFTR", "result": "enhance the activity of CFTR"}]}
{"molecule": "calyculin", "values": [{"measurement": "activity of CFTR Cl channels at the cell surface", "setting": "CFTR", "result": "enhance the activity of CFTR"}]}
